According to patent publication US20230405028A1 (priority 2020, published 2023):
Like-named read-outs stand apart in the source and are kept apart here.

Assays:
[1] = system: Human primary small intestinal epithelial cells (HSIEC)
[2] = system: mice; conditions: intraplantar injections (Bandell, 2004); cited from earlier work
[3] = system: rats; conditions: rats (Iwasaki, 2008); cited from earlier work
[4] = system: anandamide levels; conditions: chronic, but not acute, administration of 150 mg/kg (Smalheiser, 2019); cited from earlier work

## O=C/C=C/c1ccccc1 [cinnamaldehyde, (2E)-3-phenylprop-2-enal]
[1]; 5 μM, 24 h
  Cellular Metabolic Activity: 0.183
[1]; 5 μM, 48 h
  Cellular Metabolic Activity: 0.148
[1]; 5 μM, 72 h
  Cellular Metabolic Activity: 0.236
[1]; 5 μM, 96 h
  Cellular Metabolic Activity: 0.423
[1]; 5 μM, time 0
  Cellular Metabolic Activity: 0.026
[1]; 10 μM, 24 h
  Cellular Metabolic Activity: 0.166
[1]; 10 μM, 48 h
  Cellular Metabolic Activity: 0.119
[1]; 10 μM, 72 h
  Cellular Metabolic Activity: 0.160
[1]; 10 μM, 96 h
  Cellular Metabolic Activity: 0.321
[1]; 10 μM, time 0
  Cellular Metabolic Activity: 0.022
[1]; 20 μM, 24 h
  Cellular Metabolic Activity: 0.169
[1]; 20 μM, 48 h
  Cellular Metabolic Activity: 0.095
[1]; 20 μM, 72 h
  Cellular Metabolic Activity: 0.105
[1]; 20 μM, 96 h
  Cellular Metabolic Activity: 0.152
[1]; 20 μM, time 0
  Cellular Metabolic Activity: 0.025
[1]; 40 μM, 24 h
  Cellular Metabolic Activity: 0.171
[1]; 40 μM, 48 h
  Cellular Metabolic Activity: 0.049
[1]; 40 μM, 72 h
  Cellular Metabolic Activity: 0.018
[1]; 40 μM, 96 h
  Cellular Metabolic Activity: 0.015
[1]; 40 μM, time 0
  Cellular Metabolic Activity: 0.026
[1]; 80 μM, 24 h
  Cellular Metabolic Activity: 0.175
[1]; 80 μM, 48 h
  Cellular Metabolic Activity: 0.021
[1]; 80 μM, 72 h
  Cellular Metabolic Activity: 0
[1]; 80 μM, time 0
  Cellular Metabolic Activity: 0.030
[1]; 100 μM, 24 h
  Cellular Metabolic Activity: 0.171
[1]; 100 μM, 48 h
  Cellular Metabolic Activity: 0.016
[1]; 100 μM, time 0
  Cellular Metabolic Activity: 0.027
[1]; 200 μM, 24 h
  Cellular Metabolic Activity: 0.191
[1]; 200 μM, 48 h
  Cellular Metabolic Activity: 0.009
[1]; 200 μM, time 0
  Cellular Metabolic Activity: 0.031
[1]; human
  concentration above which inhibitory effect / significant toxicity (MTT): over 10 μM
[2]
  nociceptive behavior: cause nociceptive behavior
[3]
  adrenaline secretions: increasing adrenaline secretions

## COc1cc(/C=C/C(=O)CC(=O)/C=C/c2ccc(O)c(OC)c2)ccc1O [curcumin, (1E,6E)-1,7-bis(4-hydroxy-3-methoxyphenyl) hepta-1,6-diene-3,5-dione]
[1]; 1 μM, 24 h
  Cellular Metabolic Activity: 0.086
[1]; 1 μM, 48 h
  Cellular Metabolic Activity: 0.184
[1]; 1 μM, 72 h
  Cellular Metabolic Activity: 0.375
[1]; 1 μM, 96 h
  Cellular Metabolic Activity: 0.611
[1]; 1 μM, time 0
  Cellular Metabolic Activity: 0.040
[1]; 5 μM, 24 h
  Cellular Metabolic Activity: 0.079
[1]; 5 μM, 48 h
  Cellular Metabolic Activity: 0.148
[1]; 5 μM, 72 h
  Cellular Metabolic Activity: 0.299
[1]; 5 μM, 96 h
  Cellular Metabolic Activity: 0.595
[1]; 5 μM, time 0
  Cellular Metabolic Activity: 0.036
[1]; 10 μM, 24 h
  Cellular Metabolic Activity: 0.070
[1]; 10 μM, 48 h
  Cellular Metabolic Activity: 0.115
[1]; 10 μM, 72 h
  Cellular Metabolic Activity: 0.215
[1]; 10 μM, 96 h
  Cellular Metabolic Activity: 0.466
[1]; 10 μM, time 0
  Cellular Metabolic Activity: 0.036
[1]; 20 μM, 24 h
  Cellular Metabolic Activity: 0.059
[1]; 20 μM, 48 h
  Cellular Metabolic Activity: 0.057
[1]; 20 μM, 72 h
  Cellular Metabolic Activity: 0.060
[1]; 20 μM, 96 h
  Cellular Metabolic Activity: 0.038
[1]; 20 μM, time 0
  Cellular Metabolic Activity: 0.040
[1]; 40 μM, 24 h
  Cellular Metabolic Activity: 0.038
[1]; 40 μM, 48 h
  Cellular Metabolic Activity: 0.026
[1]; 40 μM, 72 h
  Cellular Metabolic Activity: 0.014
[1]; 40 μM, 96 h
  Cellular Metabolic Activity: 0.00
[1]; 40 μM, time 0
  Cellular Metabolic Activity: 0.039
[1]; 80 μM, 24 h
  Cellular Metabolic Activity: 0.042
[1]; 80 μM, 48 h
  Cellular Metabolic Activity: 0.019
[1]; 80 μM, 72 h
  Cellular Metabolic Activity: 0.018
[1]; 80 μM, 96 h
  Cellular Metabolic Activity: 0.005
[1]; 80 μM, time 0
  Cellular Metabolic Activity: 0.041
[4]
  anandamide levels in a variety of brain regions: significantly raised
